From US20090264415A2 (priority 2004, published 2009)
Where two headings read alike, the source gives them in different places.

How the values were obtained:
[1] = system: phosphodiesterase-4 (PDE-4) extract from U937 cells; assay: Phosphodiesterase-4 inhibiting activity (isotopic two-step method); assay type: biochemical; settings: for IC50: 1.01 μM [3H]cAMP+cAMP
[2] = system: peripheral blood mononuclear cells (PBMC) stimulated with allogeneic PBMC or EBV-transformed human B cells (RPMI1788); assay: Mixed lymphocyte reaction (MLR) assay; assay type: cell-based; settings: 50% suppression of the MLR, [3H]-thymidine incorporation, read-out: MLR
Summary of the method: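 Compounds, held as 10 mM DMSO stocks and diluted in culture medium, were added to PBMC stimulated by 30 Gy-irradiated allogeneic PBMC or RPMI1788 cells. Proliferation was read as [3H]-thymidine uptake (1 μCi, final 16 h) after 5 days at 37° C. Inhibition was derived from cpm.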

[3] = system: production of human TNF-α by PBMC in response to LPS; assay: TNF-α assay (LPS-stimulated PBMC, sandwich ELISA); assay type: cell-based; settings: LPS 1 μg/ml, 72 hours, read-out: TNF α
Summary of the method: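 Human PBMC isolated from heparinised blood by density gradient (10^6 cells/ml) stimulated with LPS at 1 μg/ml final, with test compound at 0.1, 1 and 10 μM, 72 h at 37° C, 5% CO2. Supernatant TNF-α quantified by sandwich ELISA against recombinant standard curve; % suppression calculated.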

| Compound | PDE-4 (% inhibition) ([1]; @ 10 μM) | IC50 ([2]; Homo sapiens, RPMI-1788) | IC50 ([3]; Homo sapiens, PBMC) | IC50 [2] | IC50 [3] | further results |
| --- | --- | --- | --- | --- | --- | --- |
| COc1ccc(-c2ccc3nc(N)nc(NCCNC(=O)Nc4cccc(C)c4)c3n2)cc1OC [Example 261, 2-amino-4-[(3-methylphenylcarbamoyl)-ethylenediamine-1-N-yl]-6-(3,4-dimethoxyphenyl)-pyrido[3,2-d]pyrimidine] | 86% @ 10 μM | 80 nM | 800 nM | – | – | – |
| COc1ccc(-c2ccc3nc(N)nc(N4CCN(C(=O)Nc5cccc(Cl)c5)CC4)c3n2)cc1OC [Example 58, 2-amino-4(N-3-chloro-phenyl-carbamoyl-piperazin-1-yl)-6-(3,4-dimethoxy-phenyl)-pyrido[3,2-d]pyrimidine] | – | – | – | 0.4 nM | 260 nM | PDE-4 (% inhibition) ([1]; @ 0.1 μM): 75% @ 0.1 μM |
| COc1ccc(-c2ccc3ncnc(N4CCN(C(=O)COc5ccc(Cl)cc5)CC4)c3n2)cc1OC [Example 113, 4-[(N-4-chlorophenoxy-acetyl)-piperazin-1-yl]-6-(3,4-dimethoxyphenyl)-pyrido[3,2-d]pyrimidine] | – | – | – | 40 nM | 300 nM | PDE-4 (% inhibition) ([1]; @ 0.4 μM): 77% @ 0.4 μM |
| COc1ccc(-c2ccc3nc(N)nc(N4CCN(c5ccccn5)CC4)c3n2)cc1OC [Example 47, 2-amino-4-(2-pyridyl-piperazin-1-yl)-6-(3,4-dimethoxyphenyl)-pyrido[3,2-d]pyrimidine] | – | – | – | 300 nM | 50 nM | PDE-4 (% inhibition) ([1]; @ 0.05 μM): 64% @ 0.05 μM |
| COc1ccc(-c2ccc3nc(N)nc(N4CCN(C(=O)Nc5ccc(F)cc5)CC4)c3n2)cc1OC [Example 56, 2-amino-4(N-4-fluoro-phenyl-carbamoyl-piperazin-1-yl)-6-(3,4-dimethoxy-phenyl)-pyrido[3,2-d]pyrimidine] | – | – | – | 3 nM | 70 nM | PDE-4 (% inhibition) ([1]; @ 0.1 μM): 74% @ 0.1 μM |
| COc1ccc(-c2ccc3ncnc(N4CCN(C(=O)Nc5cccc(C)c5)CC4)c3n2)cc1OC [Example 8] | – | 9.4 nM | 70 nM | – | – | IC50 [1]: 16 nM |
| COc1ccc(-c2ccc3ncnc(N4CCN(C(=O)Nc5ccc(F)c(Cl)c5)CC4)c3n2)cc1OC [Example 108, 4-[(N-3-chloro-4-fluorophenylcarbamoyl)-piperazin-1-yl]-6-(3,4-dimethoxy-phenyl)-pyrido[3,2-d]pyrimidine] | – | – | – | 60 nM | 200 nM | PDE-4 (% inhibition) ([1]; @ 0.2 μM): 59% @ 0.2 μM |
| COc1cc(-c2ccc3ncnc(N4CCN(C(=O)Nc5cccc(Cl)c5)CC4)c3n2)ccc1OC(C)C [Example 121] | 54% 10 μM | – | – | 300 nM | – | – |
| COc1ccc(-c2ccc3ncnc(N4CCN(C(=O)Nc5cccc(Cl)c5)CC4)c3n2)cc1Cl [Example 79, 4-[(N-3-chlorophenylcarbamoyl)-piperazin-1-yl]-6-(3-chloro-4-methoxyphenyl)-pyrido[3,2-d]pyrimidine] | 67% @ 10 μM | – | – | 300 nM | – | – |
| COc1ccc(-c2ccc3nc(N)nc(N4CCN(C(=O)Nc5cccc(Cl)c5)CC4)c3n2)cc1O [Example 212] | – | 40 nM | 900 nM | – | – | PDE-4 (% inhibition) ([1]; @ 0.9 μM): 43% @ 0.9 μM |
| COc1cc(-c2ccc3ncnc(N4CCN(C(=O)Nc5cccc(Cl)c5)CC4)c3n2)ccc1OCC1CC1 [Example 211, 4-[N-(3-chloro-phenylcarbamoyl)-piperazin-1-yl]-6-(3-methoxy-4-cyclopropylmethoxy-phenyl)-pyrido[3,2-d]pyrimidine] | 16% @ 10 μM | – | – | 400 nM | – | – |
| COc1ccc(-c2ccc3nc(N)nc(N4CCN(C(=O)COc5ccc(Cl)cc5)CC4)c3n2)cc1OC [Example 59, 2-amino-4-[(N-4-chloro-phenoxy-acetyl)-piperazin-1-yl]-6-(3,4-dimethoxyphenyl)-pyrido[3,2-d]pyrimidine] | – | 16 nM | – | – | – | IC50 [1]: 34 nM |
| COc1ccc(-c2ccc3nc(N)nc(N4CCN(c5ccc(F)cc5)CC4)c3n2)cc1OC [Example 43, 2-amino-4-(4-fluorophenyl-piperazin-1-yl)-6-(3,4-dimethoxyphenyl)-pyrido[3,2-d]pyrimidine] | – | – | – | 300 nM | 90 nM | PDE-4 (% inhibition) ([1]; @ 0.09 μM): 61% @ 0.09 μM |
| COc1ccc(-c2ccc3nc(N)nc(N4CCN(C(=O)Nc5ccc(F)c(Cl)c5)CC4)c3n2)cc1OC [Example 57, 2-amino-4(N-3-chloro-4-fluoro-phenyl-carbamoyl-piperazin-1-yl)-6-(3,4-dimethoxyphenyl)-pyrido[3,2-d]pyrimidine] | – | – | – | 4 nM | 300 nM | PDE-4 (% inhibition) ([1]; @ 0.1 μM): 74% @ 0.1 μM |
| CCOc1cc(-c2ccc3ncnc(N4CCN(C(=O)Nc5cccc(Cl)c5)CC4)c3n2)ccc1OC [Example 213, 4-[N-(3-chloro-phenylcarbamoyl)-piperazin-1-yl]-6-(3-ethoxy-4-methoxy-phenyl)-pyrido[3,2-d]pyrimidine] | – | 57 nM | 60 nM | – | – | PDE-4 (% inhibition) ([1]; @ 0.06 μM): 78% @ 0.06 μM |
| COc1ccc(-c2ccc3nc(N)nc(N4CCN(C(=O)c5ccco5)CC4)c3n2)cc1OC [Example 51, 2-amino-4-[1-(2-furoyl)-piperazin-1-yl]-6-(3,4-dimethoxyphenyl)-pyrido[3,2-d]pyrimidine] | – | – | – | 30 nM | – | PDE-4 (% inhibition) ([1]; @ 0.03 μM): 63% @ 0.03 μM |

| Compound | PDE-4 (% inhibition) ([1]; @ 10 μM) | IC50 ([2]; Homo sapiens, RPMI-1788) | IC50 ([3]; Homo sapiens, PBMC) | IC50 [2] | IC50 [3] | further results |
| --- | --- | --- | --- | --- | --- | --- |
| CCOc1ccc(-c2ccc3ncnc(N4CCN(C(=O)Nc5cccc(Cl)c5)CC4)c3n2)cc1Cl [Example 83] | 49% @ 10 μM | – | – | 500 nM | – | – |
| CCOC(=O)C1CCN(c2nc(N)nc3ccc(-c4ccc(OC)c(OC)c4)nc23)CC1 [Example 26, 2-amino-4-[4-(ethoxycarbonyl)piperidin-1-yl]-6-(3,4-dimethoxyphenyl)pyrido[3,2-d]pyrimidine] | – | 2600 nM | 60 nM | – | – | IC50 [1]: 250 nM |
| Cc1ccc(-c2ccc3ncnc(N4CCN(C(=O)Nc5cccc(Cl)c5)CC4)c3n2)cc1C [Example 81] | 12% @ 10 μM | – | – | 500 nM | – | – |
| Nc1nc(N2CCN(C(=O)COc3ccc(Cl)cc3)CC2)c2nc(-c3ccc(F)cc3)ccc2n1 [Example 207, 2-amino-4-[(N-4-chloro-phenoxy-acetyl)-piperazin-1-yl]-6-(4-fluorophenyl)-pyrido[3,2-d]pyrimidine] | 34% @ 10 μM | – | – | 30 nM | – | – |
| O=C(Nc1cccc(Cl)c1)N1CCN(c2ncnc3ccc(-c4ccc5c(c4)OCCO5)nc23)CC1 [Example 80, 4-[(N-3-chlorophenylcarbamoyl)-piperazin-1-yl]-6-(1,4-benzodioxan-6-yl)-pyrido[3,2-d]pyrimidine] | 17% @ 10 μM | – | – | 300 nM | – | – |
| O=C(Nc1cccc(Cl)c1)N1CCN(c2ncnc3ccc(-c4ccc5c(c4)OCO5)nc23)CC1 [Example 82, 4-[(N-3-chlorophenylcarbamoyl)-piperazin-1-yl]-6-(3,4-methylenedioxy)phenyl-pyrido[3,2-d]pyrimidine] | 31% @ 10 μM | – | – | 300 nM | – | – |
| Nc1nc(N2CCN(CC(=O)Nc3nccs3)CC2)c2nc(-c3ccc4c(c3)OCCO4)ccc2n1 [Example 201] | – | 800 nM | 3400 nM | – | – | – |
| Cc1cccc(NC(=O)N2CCN(c3nc(N)nc4ccc(-c5ccc6c(c5)OCO6)nc34)CC2)c1 [Example 196, 2-amino-4-[N-(3-methyl-phenyl-carbamoyl)-piperazin-1-yl]-6-(3,4-methylenedioxyphenyl)-pyrido[3,2-d]pyrimidine] | – | 30 nM | 5300 nM | – | – | – |
| COc1ccc(-c2ccc3nc(N)nc(N4CCCN(C(=O)Nc5cccc(C)c5)CC4)c3n2)cc1OC [Example 250, 2-amino-4-[(N-3-methylphenylcarbamoyl)-homopiperazin-1-yl]-6-(3,4-dimethoxyphenyl)-pyrido[3,2-d]pyrimidine] | – | 8.5 nM | 600 nM | – | – | – |
| Nc1nc(N2CCN(C(=O)COc3ccc(Cl)cc3)CC2)c2nc(-c3ccc4c(c3)OCO4)ccc2n1 [Example 193, 2-amino-4-[N-(4-chlorophenoxy-acetyl)-piperazin-1-yl]-6-(3,4-methylenedioxyphenyl)-pyrido[3,2-d]pyrimidine] | – | 40 nM | 5800 nM | – | – | – |
| COc1ccc(-c2ccc3nc(N(C)C)nc(N4CCN(C(=O)Nc5cccc(C)c5)CC4)c3n2)cc1OC [Example 15] | – | – | – | 400 nM | 3300 nM | – |
| COc1ccc(-c2ccc3ncnc(N4CCNCC4)c3n2)cc1OC [Example 107, 4-(N-piperazin-1-yl)-6-(3,4-dimethoxyphenyl)-pyrido[3,2-d]-pyrimidine] | – | – | – | 3800 nM | 2700 nM | – |
| O=C(Nc1cccc(Cl)c1)N1CCN(c2ncnc3ccc(-c4ccc(Cl)c(Cl)c4)nc23)CC1 [Example 84] | 22% @ 10 μM | – | – | 700 nM | – | – |
| COc1ccc(-c2ccc3nc(N)nc(NC4CCN(C(=O)OC(C)(C)C)CC4)c3n2)cc1OC [Example 255, 2-amino-4-[(1-Boc-piperidin-4-yl)amino]-6-(3,4-dimethoxyphenyl)-pyrido[3,2-d]pyrimidine] | – | 60 nM | 40 nM | – | – | – |
| COc1ccc(-c2ccc3ncnc(N4CCNCC4)c3n2)cc1C [Example 116, 4-(piperazin-1-yl)-6-(3-methyl-4-methoxyphenyl)-pyrido[3,2-d]pyrimidine] | – | 5100 nM | 8100 nM | – | – | – |
| COc1ccc(-c2ccc3nc(N)nc(NCc4ccccn4)c3n2)cc1OC [Example 35, 2-amino-4-[2-(aminomethyl)pyridino]-6-(3,4-dimethoxyphenyl)-pyrido[3,2-d]pyrimidine] | – | – | – | 800 nM | 700 nM | – |
